According to patent US20230407243A1, “GENETIC PLATFORM TO INVESTIGATE THE FUNCTIONS OF BACTERIAL DRUG EFFLUX PUMPS” (priority 2022, published 2023):
Where two headings read alike, the source gives them in different places.

How the values were obtained:
Format in all cases: cell-based, Escherichia coli
[1] = test system: EKO-35-Pore strains producing other efflux pumps; assay: Checkerboard synergy (FICI), porinated strain
Summary of the method: (§1)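 Read-out was OD600, the MIC being the lowest concentration without growth in a CLSI checkerboard run in MHB II. Each drug's MIC in combination was divided by its MIC alone and the two ratios summed as FICI. Cut-offs: <0.5 synergy, >0.5–1.0 additive, >1.0–2.0 indifferent, >2.0 antagonism.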

[2] = test system: EKO-35 porinated strain expressing acrF (AcrEF); assay: Checkerboard synergy (FICI), porinated strain
Summary of the method: as §1

[3] = test system: wild-type K-12-Pore; assay: Checkerboard synergy (FICI), porinated strain
Summary of the method: as §1

[4] = test system: ΔtolC
Summary of the method: as §1

[5] = test system: EKO-35 acrBD408A
Summary of the method: as §1

[6] = test system: wild-type E. coli K-12
Summary of the method: as §1

[7] = test system: EKO-35
Summary of the method: as §1

[8] = test system: ΔtolC-Pore
Summary of the method: as §1

[9] = test system: EKO-35 strains producing different efflux pumps (EKO-35 araC::X); assay: Checkerboard synergy (FICI) of PAβN or NMP with antibiotics
Summary of the method: as §1

[10] = EKO-35 mdtEF Pore, NMP + antibiotic
[11] = EKO-35 mdtEF Pore, PAβN + antibiotic
[12] = strain EKO-35 mdtEF Pore, NMP + antibiotic
[13] = EKO-35 acrEF Pore, PAβN + antibiotic
[14] = strain K-12 Pore, NMP + antibiotic
[15] = EKO-35 acrBD408A, NMP + antibiotic
[16] = EKO-35 acrBD408A, PAβN + antibiotic
[17] = strain EKO-35 acrBD408A, NMP + antibiotic
[18] = strain EKO-35, NMP + antibiotic
[19] = strain ΔtolC Pore, NMP + antibiotic
[20] = EKO-35 mdtEF, PAβN + antibiotic
[21] = strain EKO-35 acrB, NMP + antibiotic
[22] = strain EKO-35 acrD, NMP + antibiotic
[23] = strain EKO-35 acrEF, NMP + antibiotic

CC(=O)O[C@H]1C[C@@]2(C)[C@@H](C[C@@H](O)[C@H]3[C@@]4(C)CC[C@@H](O)[C@@H](C)[C@@H]4CC[C@@]32C)/C1=C(\CCC=C(C)C)C(=O)O [fusidic acid]
Effect [1, 10]: Additive
FICI [1, 10]: 0.750
Effect [1, 11]: Synergistic
FICI [1, 11]: 0.250
MICb Alone ([1]; EKO-35 mdtEF Pore, antibiotic alone (PAβN checkerboard)): 16 µg/mL
MICb Combined ([1]; EKO-35 mdtEF Pore, antibiotic in combination with PAβN): 2 µg/mL
Effect [1, 12]: Additive (additive (FICI >0.5-1.0))
FICI [1, 12]: 0.750
MICb Alone ([1]; strain EKO-35 mdtEF Pore, antibiotic alone): 8 µg/mL
MICb Combined ([1]; strain EKO-35 mdtEF Pore, antibiotic in combination with NMP): 2 µg/mL
Effect ([2]; EKO-35 acrEF Pore, NMP + antibiotic): Additive
Effect [2, 13]: Synergistic
FICI [2, 13]: 0.313
MICb Alone ([2]; EKO-35 acrEF Pore, antibiotic alone (PAβN checkerboard)): 4 µg/mL
MICb Combined ([2]; EKO-35 acrEF Pore, antibiotic in combination with PAβN): 1 µg/mL
Effect ([2]; strain EKO-35 acrEF Pore, NMP + antibiotic): Additive (additive (FICI >0.5-1.0))
MICb Alone ([2]; strain EKO-35 acrEF Pore, antibiotic alone): 2 µg/mL
MICb Combined ([2]; strain EKO-35 acrEF Pore, antibiotic in combination with NMP): 1 µg/mL
Effect ([3]; K-12 Pore, NMP + antibiotic): Synergistic
FICI ([3]; K-12 Pore, NMP + antibiotic): 0.500
Effect ([3]; K-12 Pore, PAβN + antibiotic): Synergistic
FICI ([3]; K-12 Pore, PAβN + antibiotic): 0.188
MICb Alone ([3]; K-12 Pore, antibiotic alone (PAβN checkerboard)): 512 µg/mL
MICb Combined ([3]; K-12 Pore, antibiotic in combination with PAβN): 32 µg/mL
Effect [3, 14]: Synergistic (Synergy (FICI ≤0.5))
FICI [3, 14]: 0.500
MICb Alone ([3]; strain K-12 Pore, antibiotic alone): 512 µg/mL
Effect ([4]; strain ΔtolC, NMP + antibiotic): Additive (additive (FICI >0.5-1.0))
FICI ([4]; strain ΔtolC, NMP + antibiotic): 0.625
MICb Alone ([4]; strain ΔtolC, antibiotic alone): 4 µg/mL
MICb Combined ([4]; strain ΔtolC, antibiotic in combination with NMP): 0.5 µg/mL
Effect ([4]; ΔtolC, NMP + antibiotic): Additive
FICI ([4]; ΔtolC, NMP + antibiotic): 0.625
Effect ([4]; ΔtolC, PAβN + antibiotic): Synergistic
FICI ([4]; ΔtolC, PAβN + antibiotic): 0.375
MICb Alone ([4]; ΔtolC, antibiotic alone (PAβN checkerboard)): 2 µg/mL
MICb Combined ([4]; ΔtolC, antibiotic in combination with PAβN): 0.25 µg/mL
Effect [5, 15]: Synergistic
FICI [5, 15]: 0.500
Effect [5, 16]: Synergistic
FICI [5, 16]: 0.250
MICb Alone ([5]; EKO-35 acrBD408A, antibiotic alone (PAβN checkerboard)): 4 µg/mL
MICb Combined ([5]; EKO-35 acrBD408A, antibiotic in combination with PAβN): 0.5 µg/mL
Effect [5, 17]: Synergistic (Synergy (FICI ≤0.5))
FICI [5, 17]: 0.500
MICb Alone ([5]; strain EKO-35 acrBD408A, antibiotic alone): 4 µg/mL
MICb Combined ([5]; strain EKO-35 acrBD408A, antibiotic in combination with NMP): 1 µg/mL
Effect ([6]; K-12, NMP + antibiotic): Synergistic
FICI ([6]; K-12, NMP + antibiotic): 0.375
Effect ([6]; K-12, PAβN + antibiotic): Synergistic
FICI ([6]; K-12, PAβN + antibiotic): 0.156
MICb Alone ([6]; K-12, antibiotic alone (PAβN checkerboard)): 1024 µg/mL
MICb Combined ([6]; K-12, antibiotic in combination with PAβN): 32 µg/mL
Effect ([6]; strain K-12, NMP + antibiotic): Synergistic (Synergy (FICI ≤0.5))
FICI ([6]; strain K-12, NMP + antibiotic): 0.375
MICb Alone ([6]; strain K-12, antibiotic alone): 1024 µg/mL
MICb Combined ([6]; strain K-12, antibiotic in combination with NMP): 128 µg/mL
Effect ([7]; EKO-35, NMP + antibiotic): Additive
FICI ([7]; EKO-35, NMP + antibiotic): 0.625
Effect ([7]; EKO-35, PAβN + antibiotic): Synergistic
FICI ([7]; EKO-35, PAβN + antibiotic): 0.158
MICb Alone ([7]; EKO-35, antibiotic alone (PAβN checkerboard)): 4 µg/mL
MICb Combined ([7]; EKO-35, antibiotic in combination with PAβN): 0.13 µg/mL
interaction of PAβN in combination with the labelled antibiotic (FICI) ([7]; efflux-deficient strains EKO-35, EKO-35 acrBD408A, ΔtolC): synergized
Effect [7, 18]: Additive (additive (FICI >0.5-1.0))
FICI [7, 18]: 0.625
MICb Alone ([7]; strain EKO-35, antibiotic alone): 4 µg/mL
MICb Combined ([7]; strain EKO-35, antibiotic in combination with NMP): 0.5 µg/mL
Effect [8, 19]: Additive (additive (FICI >0.5-1.0))
FICI [8, 19]: 0.750
MICb Alone ([8]; strain ΔtolC Pore, antibiotic alone): 2 µg/mL
MICb Combined ([8]; strain ΔtolC Pore, antibiotic in combination with NMP): 1 µg/mL
Effect ([8]; ΔtolC Pore, NMP + antibiotic): Additive
FICI ([8]; ΔtolC Pore, NMP + antibiotic): 0.750
Effect ([8]; ΔtolC Pore, PAβN + antibiotic): Synergistic
FICI ([8]; ΔtolC Pore, PAβN + antibiotic): 0.375
MICb Alone ([8]; ΔtolC Pore, antibiotic alone (PAβN checkerboard)): 2 µg/mL
MICb Combined ([8]; ΔtolC Pore, antibiotic in combination with PAβN): 0.25 µg/mL
Effect ([9]; EKO-35 acrB, NMP + antibiotic): Synergistic
FICI ([9]; EKO-35 acrB, NMP + antibiotic): 0.500
Effect ([9]; EKO-35 acrB, PAβN + antibiotic): Synergistic
FICI ([9]; EKO-35 acrB, PAβN + antibiotic): 0.129
MICb Combined ([9]; EKO-35 acrB, antibiotic in combination with PAβN): 4 µg/mL
Effect ([9]; EKO-35 acrD, NMP + antibiotic): Additive
FICI ([9]; EKO-35 acrD, NMP + antibiotic): 0.563
Effect ([9]; EKO-35 acrD, PAβN + antibiotic): Synergistic
FICI ([9]; EKO-35 acrD, PAβN + antibiotic): 0.141
MICb Alone ([9]; EKO-35 acrD, antibiotic alone (PAβN checkerboard)): 256 µg/mL
MICb Combined ([9]; EKO-35 acrD, antibiotic in combination with PAβN): 4 µg/mL
Effect ([9]; EKO-35 acrEF, NMP + antibiotic): Additive
FICI ([9]; EKO-35 acrEF, NMP + antibiotic): 0.750
Effect ([9]; EKO-35 acrEF, PAβN + antibiotic): Synergistic
MICb Alone ([9]; EKO-35 acrEF, antibiotic alone (PAβN checkerboard)): 32 µg/mL
MICb Combined ([9]; EKO-35 acrEF, antibiotic in combination with PAβN): 8 µg/mL
Effect ([9]; EKO-35 mdtEF, NMP + antibiotic): Synergistic
Effect [9, 20]: Synergistic
FICI [9, 20]: 0.250
MICb Alone ([9]; EKO-35 mdtEF, antibiotic alone (PAβN checkerboard)): 64 µg/mL
MICb Combined ([9]; EKO-35 mdtEF, antibiotic in combination with PAβN): 8 µg/mL
Effect [9, 21]: Synergistic (Synergy (FICI ≤0.5))
FICI [9, 21]: 0.500
MICb Combined ([9]; strain EKO-35 acrB, antibiotic in combination with NMP): 256 µg/mL
Effect [9, 22]: Additive (additive (FICI >0.5-1.0))
FICI [9, 22]: 0.563
MICb Alone ([9]; strain EKO-35 acrD, antibiotic alone): 256 µg/mL
MICb Combined ([9]; strain EKO-35 acrD, antibiotic in combination with NMP): 16 µg/mL
Effect [9, 23]: Additive (additive (FICI >0.5-1.0))
FICI [9, 23]: 0.750
MICb Alone ([9]; strain EKO-35 acrEF, antibiotic alone): 32 µg/mL
MICb Combined ([9]; strain EKO-35 acrEF, antibiotic in combination with NMP): 16 µg/mL
Effect ([9]; strain EKO-35 mdtEF, NMP + antibiotic): Synergistic (Synergy (FICI ≤0.5))
MICb Alone ([9]; strain EKO-35 mdtEF, antibiotic alone): 64 µg/mL
MICb Combined ([9]; strain EKO-35 mdtEF, antibiotic in combination with NMP): 8 µg/mL
